Assay [1] has as its system FAAH. To be noted: cited from earlier work.
The target of assay [2] is T1, FAAH (Rattus norvegicus, UniProt P97612).
T1 construct: rat or mouse brain homogenates as the enzyme source; from tissue; host or cells: rat brain (minus cerebellum), Wistar or Sprague-Dawley, washed membrane homogenate
T1 sequence (P97612 1-579): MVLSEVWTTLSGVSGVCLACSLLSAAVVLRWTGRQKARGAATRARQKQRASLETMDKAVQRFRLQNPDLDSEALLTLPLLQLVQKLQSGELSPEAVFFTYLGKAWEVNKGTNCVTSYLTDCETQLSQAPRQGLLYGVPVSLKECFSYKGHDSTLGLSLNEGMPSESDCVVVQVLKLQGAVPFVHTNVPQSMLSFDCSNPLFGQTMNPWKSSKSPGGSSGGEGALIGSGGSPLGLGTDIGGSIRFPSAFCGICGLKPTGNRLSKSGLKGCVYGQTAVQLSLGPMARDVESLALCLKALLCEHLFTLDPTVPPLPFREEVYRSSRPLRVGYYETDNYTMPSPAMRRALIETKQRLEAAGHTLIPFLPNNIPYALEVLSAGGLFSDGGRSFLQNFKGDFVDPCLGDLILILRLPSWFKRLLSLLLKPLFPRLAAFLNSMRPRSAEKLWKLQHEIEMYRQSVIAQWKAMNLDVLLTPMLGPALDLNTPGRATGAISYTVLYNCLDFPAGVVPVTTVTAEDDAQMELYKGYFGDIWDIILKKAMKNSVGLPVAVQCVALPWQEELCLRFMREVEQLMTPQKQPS
The following applies: shown for comparative purposes, cited from earlier work; for IC50: rat brain, read-out: IC50 for inhibition of rat brain AEA hydrolysis.

The target of assay [3] is T1, FAAH. The assay can be described thus: FAAH assay: [3H]AEA hydrolysis by rat brain homogenates. To be noted: for IC50: 0.5 µM [3H]AEA, rat brain homogenates; for increase in FAAH inhibitory activity versus Flu-AM1: IC50 compared with Flu-AM1. In kind it is biochemical.
The mark [4] stands for this setting: derived from pI50, read-out: IC50 for inhibition of rat brain AEA hydrolysis.
[5] abbreviates: means ± s.e.m., n = 3–4, read-out: pI50 (-logIC50) for inhibition of rat brain AEA hydrolysis (converted).

Read-outs that look alike come from different tables or passages of the source.

`Cc1cccnc1NC(=O)C(C)c1ccc(-c2ccccc2)c(F)c1` (stereo not shown) [Flu-AM1]: the “potency against FAAH versus flurbiprofen” value in assay [1] is given as “about 60 fold”. Further, in assay [2], the IC50 was 440 nM and the “pI50 (-logIC50) for inhibition of rat brain AEA hydrolysis” value was 6.36 ± 0.02.

As for `CC(C(=O)Nc1ncccc1C(F)(F)F)c1ccc(-c2ccccc2)c(F)c1` (stereo not shown) [Flu-AM3, 2–(2-Fluoro-(1,1'-biphenyl)-4-yl)-N-(3-(trifluoromethyl)pyridin-2-yl)propanamide], the IC50 in assay [3] (setting [4]) and in assay [3] (setting [5]) was 110 nM throughout. The “increase in FAAH inhibitory activity versus Flu-AM1” value in assay [3] (rat brain) is reported as “about 4 fold”.

With `CC(C(=O)Nc1ncccc1Cl)c1ccc(-c2ccccc2)c(F)c1` (stereo not shown) [Flu-AM6, N-(3-Chloropyridin-2-yl)-2-(2-fluoro-(1,1'-biphenyl)-4-yl)propanamide], the IC50 in assay [3] (setting [4]) was 19 nM; in assay [3] (setting [5]), 19.1 nM. In addition, the “increase in FAAH inhibitory activity versus Flu-AM1” value in assay [3] (rat brain) was “approximately 20 fold”. In addition, the “FAAH potency versus flurbiprofen” value in assay [3] (rat brain, IC50 compared with flurbiprofen) is reported as “more than three orders of magnitude greater than flurbiprofen”.

For `CC(C(=O)O)c1ccc(-c2ccccc2)c(F)c1` (stereo not shown) [Flurbiprofen], in assay [2], the IC50 was 29000 nM and the “pI50 (-logIC50) for inhibition of rat brain AEA hydrolysis” value is 4.53 ± 0.02.

Regarding `Cc1cccnc1NC(=O)C(C)c1ccc(CC(C)C)cc1` (stereo not shown) [Ibu-AM5], the “potency against FAAH versus ibuprofen” value in assay [1] was 2-3 orders of magnitude.

Source of the values: article PMC8079065, “Design, synthesis and in vitro and in vivo biological evaluation of flurbiprofen amides as new fatty acid amide hydrolase/cyclooxygenase-2 dual inhibitory potential analgesic agents” (Journal of Enzyme Inhibition and Medicinal Chemistry, 2021).
